Test system: L5178Y mouse lymphoma cells (ATCC CRL 1722)
Experiment: Genotoxicity: Comet-Assay (alkaline electrophoresis, extent tail moment)
Assay type: cell-based
Conditions: 1, 3, and 10 μg/mL
Experimental: Material: “Normal Melting Agarose” (NMA, Cat.-No. 840041) and “Low Melting Agarose” (LMA, Kat.-Nr. 870081) were obtained from Biozym (Hamburg, Germany), Triton x-100 from Fluka (Buchs S G, Schwitzerland), RPMI1640-medium, DMSO, and EDTA from Sigma-Aldrich (Taufkirchen, Germany), NaCl and Tris from Roth (Karlsruhe, Germany) and foetal calf serum (FCS) from Gibco (Karlsruhe, Germany). Sorbicillactone A of the batch: 2208/2a was used.
Cells: The genotoxicity of sorbicillactone A was tested on L5178Y mouse lymphoma cells (ATCC CRL 1722). As described (Müller et al., 1979, Cancer Res. 39:1102-1107), the cells were cultured in RPMI1640-medium with 10 mM Hepes, which was supplemented with 10% foetal calf serum (FCS). As a concentration of the inoculum, 10^4 cells/mL was chosen. The cells were incubated with 1, 3, and 10 μg/mL sorbicillactone A for 4 and 24 hours. After the incubation, the cells were examined with the “Comet-Assay”.
Alkaline electrophoresis: The object slides (Superfrost) were cleaned with acetone. 1.0-percent “Normal Melting Agarose” (NMA) in 1×PBS was cooked, and subsequently about 600 μl of agarose were applied onto an object slide. The object slides were shortly (˜5 min) dried at 50° C., and stored over night at room temperature. Then, the 0.7-percent “Low Melting Agarose” (LMA) was prepared in distilled water. The second layer on the object slides consisted of 200 μl LMA. […]

## C/C=C/C=C/C(O)=C1/C(=O)C(C)=C(O)[C@@]2(C)OC(=O)[C@@](C)(NC(=O)/C=C/C(=O)O)[C@@H]12 [sorbicillactone A]
4 hours incubation, FIG. 2A
  change of the extent tail moment (DNA-strand scissions): did not exhibit significant changes
24 hours incubation, FIG. 2B
  change of the extent tail moment (DNA-strand scissions): no significant changes

From patent US20070135515A1, “Method for producing sorbicillactone a” (priority 2004, published 2007)
